Measurements as given in patent US11358933B2, “Compounds and methods for inhibiting CYP26 enzymes” (Queen's University at Kingston, priority 2017, dated 2022).

Legend:
[1] = system: Cyp26a1-luc construct in MCF-7 cells; experiment: Retinoid activity assay, Cyp26a1-luc reporter in MCF-7 cells; assay type: cell-based; conditions: 24 hours, firefly relative to Renilla luciferase
Source text: This retinoid activity assay measures the ability of test compounds to induce expression of a transiently transfected RA sensitive reporter construct. In this assay, MCF-7 cells are transfected with a construct comprising an upstream promoter of the CYP26A1 gene containing 2 RA response elements driving expression of firefly luciferase (pCYP26A1-luc). Since CYP26A1 is highly inducible by RA in these cells, this construct serves as a sensitive reporter of retinod-like transcriptional activity.
MCF-7 cells were maintained in a RPMI-1640 medium containing 10% FBS. Exponentially growing cells were harvested by incubation in trypsin. Cells were then collected and plated in 24-well plates at 50,000 cells/well. Once cells reached 80-90% confluence (e.g., the next day), cells were transfected with two plasmids. The first plasmid was CYP26A1-luc construct (375 ng). The second plasmid was a control plasmid comprising the Renilla luciferase gene driven by constitutive thymidine kinase promoter (pRL-tk) (25 ng). Transfection was performed using FuGene 6 transfection reagent (Promega) with a 1:3 ratio of DNA:FuGene. 24 hours after transfection, cells were treated with test compounds diluted in DMSO in triplicate at 0.1, 1 and 10 μM final concentrations. As a positive control for reporter activation, cells were also treated with RA diluted in DMSO at the same concentrations listed above. DMSO treatment alone served as a negative control. After 24 hours of treatment, cells were harvested in passive lysis buffer (Promega) and luciferase activity in cell lysates were read using a luminometer. Data are expressed as the activity of firefly luciferase relative to Renilla luciferase (see Tables 3-5). For CYP26A1 inhibitor compounds, no activation of the reporter was detected, while the related retinoid-like compound induces luciferase expression.

[2] = system: human AML THP-1 cells; experiment: Leukemia cell differentiation by FACS (PE-CD11b), THP-1 cells with or without OP9 stroma; assay type: cell-based; conditions: RA alone
Experimental: (§1) Many human non-APL AML cell lines are sensitive to RA-induced differentiation. However, co-culture of leukemic cells with bone marrow stromal cells can block this effect of RA. This assay tests the ability of CYP26 inhibitor compounds to overcome the protective effect that stromal cells have on leukemic cell differentiation. For these experiments, OP9 mouse bone marrow stromal cells are grown MEM-α containing 20% FBS, in 24 well plates until a cell monolayer is formed. OP9 cells are then irradiated (15Gy) using a GammaCell 20 cesium-137 source (located at Queen's University) in order to induce growth arrest. Leukemic cells are then added to the irradiated monolayers, or control wells without OP9 cells. AML cell lines (150,000 cells) are then plated onto OP9 monolayers in their appropriated growth medium; THP-1 RPMI-1640 medium containing 10% FBS; MDSL, RPMI-1640 medium containing 10% FBS and 10 ng/ml recombinant human IL-3; Kasumi-1, RPMI-1640 containing 20% FBS; MV4-11, IMDM containing 10% FBS. Cells are then treated for 72 hours with DMSO (vehicle control), RA (0.1 μM for THP-1 and MV4-11 cells, and 1 μM for Kasumi-1 cells), test CYP26 inhibitor compound, or the combination of RA and inhibitor compound. After the treatment period, leukemic cells are collected and stained with fluorophore labeled antibodies against cell surface antigens indicative of myeloid differentiation (PE-CD11b), or of stem cell populations (FITC-CD34, PE-CD38); all antibodies are available from BD Biosciences. Stained cells are then sorted by FACS in a BD FACS Aria 3 flow cytometer (Queen's University) using FACS Diva software, to assess percentage of cells that are CD11b^+, the relative expression levels of CD11b (by median fluorescence intensity—MFI), or percentage of CD34^+CD38^− leukemic stem cells (LSCs). Results are typically presented as the average of triplicates.

[3] = system: THP-1 cells; experiment: Leukemia cell colony formation, THP-1 cells; assay type: cell-based, human; conditions: RA alone, without stroma
Experimental: This experiment is used to test the long-term proliferative ability of hematopoietic stem and progenitor cells as well as leukemic stem cells. Colony forming ability in long term cultures is indicative of stem/progenitor cell activity. […] For these experiments, bone marrow stromal and leukemic cell co-cultures are prepared as described above and treated with RA and/or CYP26 inhibitor compound for 72 hours. After the treatment period, leukemic cells are collected and re-plated in semi-solid methylcellulose medium to assess colony forming ability. 500 leukemic cells are plated per dish in 35 mm plates in 1.1 ml of MethoCult (available from STEMCELL Technologies, Vancouver, Canada). Triplicate plates are prepared per treatment, and cultures are grown for 14-16 days in a CO2 incubator. After the culture period colonies are counted under a dissecting microscope.

[4] = system: MV4-11 cells; experiment: Leukemia cell differentiation by FACS (CD11b+), MV4-11 cells with or without stroma; assay type: cell-based, human; conditions: RA alone, without stroma
Experimental: as §1, with “Cells are then treated for 72 hours with DMSO (vehicle control), RA (0.1 μM for THP-1 and MV4-11 cells, and 1 μM for Kasumi-1 cells), test CYP26 inhibitor compound, or the combination of RA and inhibitor compound. After the treatment period, leukemic cells are collected and stained with fluorophore labeled antibodies against cell surface antigens indicative of myeloid differentiation (PE-CD11b), or of stem cell populations (FITC-CD34, PE-CD38); all antibodies are available from BD Biosciences.” left out, “Results are typically presented as the average of triplicates.” left out

[5] = system: MV4-11 cells; experiment: Leukemia cell apoptosis (FITC-Annexin V), MV4-11 cells; assay type: cell-based, human; conditions: RA alone
Experimental: RA can also induce apoptosis is a variety of cell types, including AML cells. This experiment tests CYP26 inhibitor compounds for their ability to rescue RA-induced apoptosis in the presence of bone marrow stromal cells. For these experiments MV4-11 AML cells are plated as above, in the presence and absence of stromal monolayers. Cells are then treated for 48 hours with RA (0.1 μM). After the treatment period, cells are stained with a FITC-labeled annexin V antibody (available from Thermofisher Scientific), which binds to the surface of apoptotic cells. Cells are then sorted by FACS in a as above and data are expressed as percentage of annexin V^+ (apoptotic) cells.

[6] = system: kasumi-1 human AML cells; experiment: CD34+CD38- LSC analysis by FACS, Kasumi-1 cells with or without OP9 stroma; assay type: cell-based; conditions: 1 μM RA alone, without stroma
Experimental: as §1, with “Cells are then treated for 72 hours with DMSO (vehicle control), RA (0.1 μM for THP-1 and MV4-11 cells, and 1 μM for Kasumi-1 cells), test CYP26 inhibitor compound, or the combination of RA and inhibitor compound. After the treatment period, leukemic cells are collected and stained with fluorophore labeled antibodies against cell surface antigens indicative of myeloid differentiation (PE-CD11b), or of stem cell populations (FITC-CD34, PE-CD38); all antibodies are available from BD Biosciences.” left out, “Results are typically presented as the average of triplicates.” left out

[7] = system: rhino mice; experiment: Rhino mouse model of acne; assay type: in vivo; conditions: topical 10 nmol RA, 5 times per week, two weeks
Experimental: These experiments test the ability of CYP26 inhibitor compounds and other retinoids for potential anti-acne efficacy in a mouse model of acne. The rhino mouse model is a hairless mutant that develops skin lesions similar to acne, and has been used extensively as a model to assess new acne treatments, as well as in vivo activity of retinoids. Test compounds or RA were dissolved in acetone/10% DMSO, and 0.4 ml was applied topically to the dorsal skin of animals (2 male+2 female) once a day for five days per week, for two consecutive weeks. On the day after the last treatment, animals were sacrificed and skin was collected from the treated are and processed for histology, and epidermal sheets prepared for visualization of utriculi. Histological sections were prepared by paraffin embedding of formalin fixed samples, and stained with hematoxylin and eosin. Photographs were taken under a Nikon Eclipse E600 microscope using Q Imaging software at 20× magnification. Epidermal sheets were prepared by treating skin samples for 5 days in 0.5% acetic acid at 4° C. for 5 days, after which the dermal and epidermal layers were carefully separated, and the epidermis was then dehydrated with a series of ethanol treatments (70%, 80%, 90% and 100%). […]

[8] = target: CYP26A1 (Homo sapiens (Human), UniProt O43174); experiment: Cell-based inhibitor assay ([3H]-RA metabolism), CYP26A1 stably transfected HeLa cells; conditions: for IC50: HeLa cell-based assay, 3 hours; for CYP26A1 Rel. to keto: IC50 relative to ketoconazole
Experimental: (§2) CYP26A1 or CYP26B1 stably transfected HeLa cells were maintained in Minimum Essential Medium (MEM) containing 10% fetal bovine serum (FBS) and 100 μg/mL hygromycin. Exponentially growing cells were harvested by incubation in trypsin. Cells were then collected and re-plated in 48-well culture plates at 5×10^5 cells in 0.2 mL of culture medium containing 0.05 μCi [^3H]-RA in the presence or absence of increasing concentrations of a test compound. The test compounds were diluted in dimethyl sulfoxide (DMSO) and then added in duplicate to wells at 0.01, 0.1, 1, 10 and 100 μM final concentration. As a positive control for inhibition of RA metabolism, cells were also incubated with ketoconazole at the same concentrations as above. Cells were incubated for 3 hours at 37° C. Retinoids were then extracted using the procedure of Bligh, et al., (1959), Canadian Journal of Biochemistry 37, 911-917, which was modified by using dichloromethane instead of chloroform. Each sample's water soluble radioactivity level was quantified using a β-scintillation counter (using Ecolume scintillation fluid, available from MP Biomedicals of Solon, Ohio, USA). IC50 values represented the concentration of inhibitor required to inhibit all trans-RA metabolism by 50%, and were derived from log transformed data.

[9] = target: CYP26B1 (Homo sapiens (Human), UniProt Q9NR63); experiment: Cell-based inhibitor assay ([3H]-RA metabolism), CYP26B1 stably transfected HeLa cells; conditions: for IC50: HeLa cell-based assay, 3 hours; for CYP26B1 Rel. to keto: IC50 relative to ketoconazole
Experimental: as §2

Chain of CYP26B1 (Q9NR63 whole entry): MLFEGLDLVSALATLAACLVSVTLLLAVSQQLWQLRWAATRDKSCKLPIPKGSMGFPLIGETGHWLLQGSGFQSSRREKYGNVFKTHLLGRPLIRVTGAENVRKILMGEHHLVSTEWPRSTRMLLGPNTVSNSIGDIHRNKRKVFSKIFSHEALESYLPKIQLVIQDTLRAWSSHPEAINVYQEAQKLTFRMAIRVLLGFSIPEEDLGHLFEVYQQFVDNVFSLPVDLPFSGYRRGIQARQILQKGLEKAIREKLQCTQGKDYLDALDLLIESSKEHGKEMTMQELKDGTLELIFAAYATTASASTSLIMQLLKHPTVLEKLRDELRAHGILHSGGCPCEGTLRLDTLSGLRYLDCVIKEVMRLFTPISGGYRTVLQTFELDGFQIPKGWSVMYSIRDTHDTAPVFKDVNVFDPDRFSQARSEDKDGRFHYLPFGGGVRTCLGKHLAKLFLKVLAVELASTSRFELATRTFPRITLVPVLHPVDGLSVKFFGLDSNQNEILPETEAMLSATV
Chain of CYP26A1 (O43174 whole entry): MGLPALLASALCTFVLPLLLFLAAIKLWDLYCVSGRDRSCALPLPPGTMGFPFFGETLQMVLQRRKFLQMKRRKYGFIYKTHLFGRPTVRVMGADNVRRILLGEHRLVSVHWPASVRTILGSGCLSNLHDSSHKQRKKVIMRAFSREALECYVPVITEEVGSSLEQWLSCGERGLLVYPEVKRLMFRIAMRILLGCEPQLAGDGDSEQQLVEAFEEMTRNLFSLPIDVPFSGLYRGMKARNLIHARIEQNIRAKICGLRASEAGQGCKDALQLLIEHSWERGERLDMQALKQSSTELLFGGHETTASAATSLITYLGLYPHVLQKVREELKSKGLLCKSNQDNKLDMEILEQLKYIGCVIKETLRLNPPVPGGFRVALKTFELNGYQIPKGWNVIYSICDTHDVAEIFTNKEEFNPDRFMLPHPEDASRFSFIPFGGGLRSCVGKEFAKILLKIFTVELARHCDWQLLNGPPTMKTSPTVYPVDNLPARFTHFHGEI

Row | SMILES | Rel. Luciferase Activity (mean) ([1]; 0.1 μM) | Rel. Luciferase Activity (mean) ([1]; 1 μM) | Rel. Luciferase Activity (mean) ([1]; 10 μM) | CD11b marker expression (MFI) [2] | Colony forming ability [3] | Percentage of CD11b+ cells [4] | Apoptosis (Annexin V positive cells) [5] | Number of CD34+CD38- cells (LSCs) [6] | Utriculi size and epidermis thickness [7] | IC50 [8] | CYP26A1 Rel. to keto [8] | IC50 [9] | CYP26B1 Rel. to keto [9]
1 | CC1(C)CC(C)(C)c2cc(-c3cc4cc(CC(=O)O)ccc4o3)cc(C3CC3)c2O1 [Compound 033] | .0024 | .0026 | .0027 |  |  |  |  |  |  |  |  |  | 
2 | CC1=C(/C=C/C(C)=C/C=C/C(C)=C/C(=O)O)C(C)(C)CCC1 [RA, retinoic acid, reference compound] |  |  |  | significantly increases expression of the CD11b marker | reduced in THP-1 cells by exposure to RA | increased the percentage of | undergo apoptosis in response to RA | significantly reduced the number of these cells | reduction in the size of these utriculi, and a thickening of the epidermis |  |  |  | 
3 | C=CCc1cc(C(=O)Cc2ccc(CC(=O)O)cc2)cc2c1OC(C)(C)CC2(C)C [Compound 027] | .0116 | .0099 | .0121 |  |  |  |  |  |  | 8.6 µM | 1.2 | 8.8 µM | 0.9
4 | CC(C)(C)c1cccc(C(=O)Cc2ccc(/C=C/C(=O)O)cc2)c1 [Compound 025] | .0144 | .01 | .0128 |  |  |  |  |  |  | 45.6 µM | 21.7 | 17.9 µM | 4.2
5 | CC(C)(C)c1cccc(-c2cc3cc(/C=C/C(=O)O)ccc3o2)c1 [Compound 031] | .0039 | .0047 | .0034 |  |  |  |  |  |  |  |  | 18.3 µM | 2
6 | CC1(C)CC(C)(C)c2cc(B3Oc4ccc(CC(=O)O)cc4O3)cc(C3CC3)c2O1 [Compound 030] | .0411 | .0343 | .0385 |  |  |  |  |  |  | 31.5 µM | 20 | 88.1 µM | 9.2
7 | CC(C)(C)c1cccc(B(O)Oc2ccc(/C=C/C(=O)O)cc2)c1 [Compound 029] | .0386 | .0384 | .0333 |  |  |  |  |  |  |  |  | 54.9 µM | 5.7
8 | CC1(C)CC(C)(C)c2cc(C(=O)Cc3ccc(CC(=O)O)cc3)cc(C3CC3)c2O1 [Compound 028] | .0165 | .0094 | .0144 |  |  |  |  |  |  | > 1000 µM |  | > 1000 µM | 
9 | Cc1ccc(C(C)(C)C)cc1-c1cc2cc(/C=C/C(=O)O)ccc2[nH]1 [Compound 034] |  |  |  |  |  |  |  |  |  | 9.6 µM | 1.9 | 0.5 µM | 0.2
10 | CC(C)(C)c1cccc(-c2cc3cc(CC(=O)O)ccc3o2)c1 [Compound 032] | .0019 | .0015 | .0004 |  |  |  |  |  |  | 8.6 µM | 1.2 | 2.3 µM | 0.3
